The record followed here is patent US6346535B1, “Fungicidal mixtures” (American Cyanamid Company, priority 1999, dated 2002).

Read-outs that look alike come from different tables or passages of the source.

Type in all cases: in vivo
Assay [1] has as its system Puccinia recondita on wheat. Briefly: Greenhouse trial, 4 day residual, Puccinia recondita on wheat. The source says: (§1) The fungicides are applied in single treatments, or in a combination comprising a benzophenone of formula I and a compound selected from (A) through (E) as defined above. The compounds are applied in form of an aqueous spray mix obtained from a concentrated formulation or the technical material.
(§2) 1. Seed is planted in 6 cm diameter plastic pots and maintained in the greenhouse.
(§3) 2. When the primary leaf is fully expanded (in the case of cereals) or several leaves are present (in the case of dicots), formulated test compounds are sprayed with a three nozzle overhead fungicide sprayer to near run-off. Alternatively, a single nozzle overhead track sprayer is used for application of the compounds to cereals at a rate of 200 liters/ha (l/ha). Plants are then allowed to air-dry.
(§4) 3. Inoculation precedes treatment in the case of curative evaluations and follows treatment in case of residual evaluations. For inoculation of powdery mildew disease, plants are set up on greenhouse benches with bottom watering mats and inoculated by dusting them with conidia from infected plants. Between inoculation and treatment for curative evaluations and between treatment and inoculation for residual evaluations, plants are maintained in the greenhouse with bottom watering. For inoculation of non-powdery mildew diseases, an aqueous spore suspension of the pathogen is applied to the plant and the plants are kept 1-2 days in a moist infection chamber before being returned to the greenhouse where they are maintained by bottom watering.
(§5) 4. Disease on the foliage as percent leaf area with disease symptoms/signs is evaluated about 7 days after inoculation. In the case of wheat, the tips and bases of the leaves are excluded from the evaluation. [formula]
(§6) 1. Technical compounds are formulated in a solvent/surfactant system consisting of 5% acetone and 0.05% Tween 20 in deionized water. Compounds are dissolved in acetone prior to addition of the water; the Tween 20 can be added through either the acetone or the water. Dilutions are made using the solvent/surfactant system. Formulated compounds are prepared using deionized water.
(§7) Assessments of the diseases took place at the indicated day after the application of the compounds. Per cent infected leaf area infected was evaluated. The efficacy of the compounds/compounds mixtures to control the diseases was calculated by using the formula given above under item 4: […]
(§8) Synergy of a fungicide mixture was determined by comparing the actual (observed) fungicidal activity of the mixture to the expected fungicidal activity of the mixture as calculated using the COLBY formula given hereinabove.
Fungicidal Efficacy of the Mixture of BP-4+Other Fungicides (4 Day Residual) Against Puccinia recondita on Wheat
Fungicidal Efficacy of the Mixture of BP-4+Myclobutanil (4 Day Residual) Against Puccinia recondita on Wheat

Assay [2] concerns Pyrenophora teres on barley. Kind of assay: Greenhouse trial, 4 day residual, Pyrenophora teres on barley.
From the text: as §1, §2, §3, §4, §5, §6, §7, §8
Fungicidal Efficacy of the Mixture of BP-4+Other Fungicides (4 Day Residual) Against Pyrenophora teres on Barley

In assay [3] the test system is Erysiphe cichoracearum on cucumbers. Kind of assay: Greenhouse trial, 4 day residual, Erysiphe cichoracearum on cucumbers. Particulars: for pest or weed control at 0.4 ppm / pest or weed control at 2 ppm / pest or weed control at 10 ppm / pest or weed control at 50 ppm: Golovinomyces cichoracearum, 96 h, read-out: Observed Efficacy.
From the text: as §1, §2, §3, §4, §5, §6, §7, §8

[4] abbreviates: Puccinia recondita, 96 h, Table XV (Example 15), 4 day residual, dose rate 0.4 ppm, read-out: Observed Efficacy.
[5] abbreviates: Puccinia recondita, 96 h, Table XV (Example 15), 4 day residual, dose rate 2 ppm, read-out: Observed Efficacy.
[6] abbreviates: Puccinia recondita, 96 h, Table XV (Example 15), 4 day residual, dose rate 10 ppm, read-out: Observed Efficacy.
The mark [7] stands for this setting: Puccinia recondita, 96 h, Table XV (Example 15), 4 day residual, dose rate 50 ppm, read-out: Observed Efficacy.
[8] abbreviates: Pyrenophora teres, 96 h, Table XVI (Example 16), 4 day residual, dose rate 2 ppm, read-out: Observed Efficacy.
Setting [9] is: Pyrenophora teres, 96 h, Table XVI (Example 16), 4 day residual, dose rate 10 ppm, read-out: Observed Efficacy.
The mark [10] stands for this setting: Table XIV (Example 14), 4 day residual, dose rate 0.4 ppm.
Setting [11] is: Table XIV (Example 14), 4 day residual, dose rate 2 ppm.
The mark [12] stands for this setting: Table XIV (Example 14), 4 day residual, dose rate 10 ppm.
Where [13] appears, read: Table XIV (Example 14), 4 day residual, dose rate 50 ppm.
Where [14] appears, read: Puccinia recondita, 96 h, read-out: Observed Efficacy.
Where [15] appears, read: Pyrenophora teres, 96 h, read-out: Observed Efficacy.
The mark [16] stands for this setting: Pyrenophora teres, 96 h, Table XVI (Example 16), 4 day residual, dose rate 0.4 ppm, read-out: Observed Efficacy.
The mark [17] stands for this setting: Table XV (Example 15), 4 day residual, dose rate 0.4 ppm.
Setting [18] is: Table XV (Example 15), 4 day residual, dose rate 2 ppm.
Where [19] appears, read: Table XVI (Example 16), 4 day residual, dose rate 2 ppm.
[20] abbreviates: Table XVI (Example 16), 4 day residual, dose rate 10 ppm.

On to `OC(c1ccc(Cl)cc1)(c1cncnc1)c1ccccc1Cl` (centres unmarked) [Fenarimol], for which the pest or weed control at 0.4 ppm in assay [1] (setting [4]) stood at 0%; in assay [3] (setting [10]), 5%. In addition, the pest or weed control at 2 ppm amounted to 9% in assay [1] (setting [5]), 0% in assay [2] (setting [8]) and 34% in assay [3] (setting [11]). Also, the results for the pest or weed control at 10 ppm in assay [1] (setting [6]), in assay [2] (setting [9]) and in assay [3] (setting [12]) were 23%, 4% and 42%, respectively. The pest or weed control at 50 ppm stood at 90% in assay [1] (setting [7]) and 67% in assay [3] (setting [13]).

Turning to `CCCN(CCOc1c(Cl)cc(Cl)cc1Cl)C(=O)n1ccnc1` [Prochloraz], in assay [1] (setting [14]), the pest or weed control at 0.4 ppm was found to be 0%, the pest or weed control at 2 ppm amounted to 0%, the pest or weed control at 16 ppm stood at 1% and the pest or weed control at 50 ppm was determined as 14%. In assay [2] (setting [15]), the pest or weed control at 0.4 ppm was determined as 8%, the pest or weed control at 2 ppm is 19% and the pest or weed control at 10 ppm worked out at 48%. Moreover, in assay [3], the pest or weed control at 0.4 ppm was found to be 0%, the pest or weed control at 2 ppm stood at 0%, the pest or weed control at 10 ppm was 1% and the pest or weed control at 50 ppm worked out at 18%.

Regarding `CC(Cc1ccc(C(C)(C)C)cc1)CN1C[C@@H](C)O[C@@H](C)C1` (some centres unmarked) [Fenpropimorph], the results for the pest or weed control at 0.4 ppm in assay [1] (setting [4]), in assay [2] (setting [16]) and in assay [3] (setting [10]) were 2%, 0% and 0%, respectively. The pest or weed control at 2 ppm was 15% in assay [1] (setting [5]), 0% in assay [2] (setting [8]) and 0% in assay [3] (setting [11]). In addition, the pest or weed control at 50 ppm in assay [1] (setting [7]) came out at 60%. For the same compound, the pest or weed control at 10 ppm in assay [2] (setting [9]) was found to be 3%; in assay [3] (setting [12]), 7%.

`CON=C(Cc1cccnc1)c1ccc(Cl)cc1Cl` [Pyrifenox]: the pest or weed control at 0.4 ppm in assay [1] (setting [4]), in assay [2] (setting [16]) and in assay [3] (setting [10]) was 0% in each case. For the same compound, the pest or weed control at 2 ppm in assay [1] (setting [5]), in assay [2] (setting [8]) and in assay [3] (setting [11]) was 0% in each case. Besides, the pest or weed control at 10 ppm in assay [1] (setting [6]) and in assay [3] (setting [12]) was 1% throughout. Further, the pest or weed control at 50 ppm was 6% in assay [1] (setting [7]); 15% in assay [2] (Pyrenophora teres, 96 h, Table XVI (Example 16), 4 day residual, dose rate 50 ppm, read-out: Observed Efficacy); 20% in assay [3] (setting [13]).

As for Flusilazole, the “Observed Efficacy” value in assay [1] (setting [17]) came to 5; in assay [1] (setting [18]), 28; in assay [2] (setting [19]), 8; in assay [2] (setting [20]) it was 26; in assay [3] (setting [10]) it was 0; in assay [3] (setting [11]), 0. Also, in assay [3] (setting [12]), the “Observed Efficacy” value turned out to be 19.

Consider `CC(C1CC1)C(O)(Cn1cncn1)c1ccc(Cl)cc1` (centres unmarked) [Cyproconazole], for which the figures for the pest or weed control at 0.4 ppm in assay [1] (setting [4]) and in assay [3] (setting [10]) were 88% and 19%, respectively. Further, the pest or weed control at 2 ppm in assay [1] (setting [5]) is 99%; in assay [2] (setting [8]), 4%. Besides, the values for the pest or weed control at 10 ppm in assay [2] (setting [9]) and in assay [3] (setting [12]) were 1% and 68%, respectively.

Consider Dinocap, for which the “Observed Efficacy” value in assay [1] (setting [17]) was determined as 4; in assay [1] (setting [18]), 13; in assay [1] (Table XV (Example 15), 4 day residual, dose rate 10 ppm), 23; in assay [2] (Table XVI (Example 16), 4 day residual, dose rate 0.4 ppm), 0; in assay [2] (setting [19]) it was 0; in assay [2] (setting [20]) it was 5. In addition, the “Observed Efficacy” value in assay [3] (setting [10]) and in assay [3] (setting [11]) was 0 each time.
